The values below come from the NIST ThermoML archive (doi:10.1021/je034259j).

Numbers after ± are expanded uncertainties.

The conditions of this series: Liquid; for mass density: 298.15 K; for mass density / molar volume: 101.33 kPa; for molar volume / vapor or sublimation pressure: 313.15 K; for molar volume: Vibrating tube method; for vapor or sublimation pressure: Ebulliometric method (Recirculating still).

As usually defined, the mass density is the mass of a sample divided by its volume. By vapor or sublimation pressure is commonly meant the pressure of vapour in equilibrium with the condensed phase. As to `CCOC(C)=O` [ethyl acetate], the mass density is 894.97 ± 0.27 kg/m3, the molar volume is 0.000101 ± 1e-06 m3/mol and the “vapor or sublimation pressure” value amounted to 25.3 ± 0.2 kPa.
Consider `ClCBr` [bromochloromethane], for which the mass density is reported as 1924.88 ± 1.3 kg/m3, the molar volume is 6.9e-05 ± 1e-06 m3/mol and the “vapor or sublimation pressure” value was found to be 37.28 ± 0.43 kPa.
`ClCCCl` [1,2-dichloroethane]: the mass density is reported as 1246.59 ± 0.41 kg/m3, the molar volume came out at 8.1e-05 ± 1e-06 m3/mol and the “vapor or sublimation pressure” value is recorded as 21.05 ± 0.2 kPa.
Turning to `ClCCBr` [1-bromo-2-chloroethane], the mass density amounted to 1727.88 ± 1.9 kg/m3, the molar volume is recorded as 8.4e-05 ± 1e-06 m3/mol and the “vapor or sublimation pressure” value amounted to 8.91 ± 0.1 kPa.
Regarding `BrCBr` [dibromomethane], the mass density was determined as 2478.37 ± 2.3 kg/m3, the molar volume was 7.1e-05 ± 1e-06 m3/mol and the “vapor or sublimation pressure” value turned out to be 13.01 ± 0.15 kPa.
